Data from patent US11382956B2, “Amylin analogues” (Zealand Pharma A/S, priority 2016, dated 2022).
Numbered stars: 1 amine (or outer) side, 2 acyl side, 3 side chain; on linkers, the order of the positions; unused ones are H or OH. Bridge positions count the residues as written; N and C are the ends. Square brackets hold non-standard residues; d marks the D form. Peptide text beside a SMILES is read from it. * marks the point of attachment. C20 diacid = O=C(O)CCCCCCCCCCCCCCCCCCC(=O)*; γGlu = O=C(O)[C@H](CCC(=O)[*:2])N[*:1]; Hyp = O=C(O)[C@@H]1C[C@@H](O)CN1; NMeI = CC[C@H](C)[C@H](NC)C(=O)O; Aad = N[C@@H](CCCC(=O)O)C(=O)O; Orn = NCCC[C@H](N)C(=O)O; Dap = NC[C@H](N)C(=O)O; Sar = CNCC(=O)O

Assays:
[1] = target: T1, recombinant human calcitonin receptor (hCT-R) (Homo sapiens, UniProt P30988); assay: hCT-R cAMP assay (AlphaScreen) in 1321N1 cells; format: cell-based; details: cAMP formation, 45 min stimulation
T1 construct: host or cells: human astrocytoma cell line 1321N1
T1 sequence (P30988 25-474): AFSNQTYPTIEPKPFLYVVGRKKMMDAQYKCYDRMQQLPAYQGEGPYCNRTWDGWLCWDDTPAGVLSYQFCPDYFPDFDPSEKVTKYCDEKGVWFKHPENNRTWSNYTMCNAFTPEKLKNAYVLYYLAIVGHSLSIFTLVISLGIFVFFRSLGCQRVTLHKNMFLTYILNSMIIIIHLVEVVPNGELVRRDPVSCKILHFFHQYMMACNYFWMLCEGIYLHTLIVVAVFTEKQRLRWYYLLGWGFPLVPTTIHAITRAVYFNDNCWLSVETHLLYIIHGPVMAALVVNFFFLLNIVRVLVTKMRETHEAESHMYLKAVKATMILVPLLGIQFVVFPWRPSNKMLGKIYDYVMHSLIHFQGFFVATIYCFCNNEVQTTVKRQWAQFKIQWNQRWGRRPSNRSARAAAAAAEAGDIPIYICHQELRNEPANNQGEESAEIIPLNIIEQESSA
Source text: (§1) For the assessment of the in vitro activity of test peptides, cell lines expressing recombinant human calcitonin receptor (hCT-R) or recombinant human amylin 3 receptor (hAMYR3) in the background of the human astrocytoma cell line 1321N1 were purchased from DiscoveRx Corporation (Cat. No. 95-016106 and 95-0166C6). The hAMYR3 is a hetero-oligomer of the calcitonin receptor (Isoform 2; Gene ID 799) and RAMPS (Gene ID 10268) that forms when both genes are expressed in the same cell. The hCT-R cell line expresses only the recombinant human calcitonin receptor gene (Isoform 2; Gene ID 799). Upon activation of hCT-R or hAMYR3 by the test peptides the formation of cAMP is induced and was measured using the AlphaScreen® cAMP Assay kit from Perkin-Elmer (Cat. No. 6760635R).
(§2) Briefly, 1321N1 cells expressing hCT-R or hAMYR3 were seeded in 384-well microtiter plates (Falcon Optilux White, Cat.-No. 10448642) at 5,000 cells in […] growth medium per well (AssayComplete 1321N1 Cell Culture Kit, DiscoveRx Corp.), and incubated for 24 h at 37° C., 5% CO2. On the day of analysis growth medium was removed and the cells were stimulated by adding 10 μL of stimulation buffer (10 […], 0.1% BSA) containing increasing concentrations of test peptides, and incubation for 45 min at room temperature. The stimulation was stopped by adding 5.6 μL/well donor bead detection mix (5 mM Hepes pH7.4, 0.5% TWEEN 20, 0.1% BSA, 0.05 mg/mL donor beads, 62.5 nM biotinylated cAMP) and 4.5 μL/well acceptor bead solution (5 mM Hepes pH7.4, 0.5% TWEEN 20, 0.1% BSA, 0.05 mg/mL acceptor beads). After thorough mixing the plates were incubated in the dark for 1 h at room temperature and the cAMP content of the resulting cell lysates was estimated according to the AlphaScreen® cAMP Assay manufacturer's instructions. EC50 values were estimated by computer-aided curve fitting of results of at least 7 different compound concentrations.

[2] = target: T2, recombinant human amylin 3 receptor (hAMYR3) (Homo sapiens, UniProt O60896+P30988); assay: hAMYR3 cAMP assay (AlphaScreen) in 1321N1 cells; format: cell-based; details: cAMP formation, 45 min stimulation
T2 construct: host or cells: human astrocytoma cell line 1321N1
T2 sequence (P30988 25-474): T1 sequence (P30988 25-474)
T2 sequence (O60896 24-148 partner): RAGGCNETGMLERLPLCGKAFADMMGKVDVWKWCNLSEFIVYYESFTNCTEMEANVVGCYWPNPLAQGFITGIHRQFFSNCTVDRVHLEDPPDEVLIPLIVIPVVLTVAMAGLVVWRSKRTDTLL
Source text: as §1, §2

| Structure (SMILES) | EC50 [1] [nM] | EC50 [2] [nM] |
| --- | --- | --- |
| CC[C@H](C)[C@@H](C(=O)N1CCC[C@H]1C(=O)N[C@@H](CO)C(=O)N[C@@H](CO)C(=O)N[C@H](C(=O)N[C@@H](CCC(=O)O)C(=O)N[C@H](C(=O)NCC(=O)N[C@@H](CO)C(=O)N[C@@H](CC(N)=O)C(=O)N[C@H](C(=O)N1C[C@H](O)C[C@H]1C(N)=O)[C@@H](C)O)C(C)C)[C@@H](C)O)N(C)C(=O)[C@H](C)NC(=O)CN(C)C(=O)[C@H](Cc1ccccc1)NC(=O)[C@@H](NC(=O)[C@@H](NC(=O)[C@H](CCCNC(=N)N)NC(=O)[C@H](CCC(N)=O)NC(=O)[C@H](CC(C)C)NC(=O)[C@H](Cc1ccccc1)NC(=O)[C@H](CCCC(=O)O)NC(=O)[C@H](C)NC(=O)[C@H](CC(C)C)NC(=O)[C@H](CCCNC(=N)N)NC(=O)[C@H](CCC(=O)O)NC(=O)[C@@H](NC(=O)[C@H](C)NC(=O)[C@@H]1CCCNC(=O)C[C@H](NC(=O)[C@H](CCCNC(=N)N)NC(=O)CC[C@H](NC(=O)CCCCCCCCCCCCCCCCCCC(=O)O)C(=O)O)C(=O)NCC(=O)N[C@@H]([C@@H](C)O)C(=O)N[C@@H](C)C(=O)N[C@@H]([C@@H](C)O)C(=O)N1)[C@@H](C)O)[C@@H](C)O)[C@@H](C)O [Compound 24, [19CD]-isoGlu-RD()GTAT-Orn()-ATERLA-Aad-FLQRTTF-Gly(Me)-A-Ile(Me)-PSSTEVGSNT-Hyp-NH2] ({C20 diacid-γGlu}-RDGTAT[Orn]ATERLA[Aad]FLQRTTF[Sar]A[NMeI]PSSTEVGSNT[Hyp]-NH2; lactam 2-7) | 0.038 | 0.013 |
| CC[C@H](C)[C@@H](C(=O)N[C@@H](CC(C)C)C(=O)N[C@@H](CO)C(=O)N[C@@H](CO)C(=O)N[C@H](C(=O)N[C@@H](CCC(=O)O)C(=O)N[C@H](C(=O)NCC(=O)N[C@@H](CO)C(=O)N[C@@H](CC(N)=O)C(=O)N[C@H](C(=O)N1C[C@H](O)C[C@H]1C(N)=O)[C@@H](C)O)C(C)C)[C@@H](C)O)N(C)C(=O)[C@H](C)NC(=O)CN(C)C(=O)[C@H](Cc1ccccc1)NC(=O)[C@@H](NC(=O)CNC(=O)[C@H](CCCNC(=N)N)NC(=O)[C@H](CCC(N)=O)NC(=O)[C@H](CC(C)C)NC(=O)[C@H](Cc1ccccc1)NC(=O)[C@H](CCCC(=O)O)NC(=O)[C@H](C)NC(=O)[C@H](CC(C)C)NC(=O)[C@H](CCCNC(=N)N)NC(=O)[C@H](CCC(=O)O)NC(=O)[C@@H](NC(=O)[C@H](C)NC(=O)[C@@H]1CCCNC(=O)C[C@H](NC(=O)[C@H](CCCNC(=N)N)NC(=O)CC[C@H](NC(=O)CCCCCCCCCCCCCCCCCCC(=O)O)C(=O)O)C(=O)N[C@@H](CCC(N)=O)C(=O)N[C@@H]([C@@H](C)O)C(=O)N[C@@H](C)C(=O)N[C@@H]([C@@H](C)O)C(=O)N1)[C@@H](C)O)[C@@H](C)O [Compound 28, [19CD]-isoGlu-RD()QTAT-Orn()-ATERLA-Aad-FLQRGTF-Gly(Me)-A-Ile(Me)-LSSTEVGSNT-Hyp-NH2] ({C20 diacid-γGlu}-RDQTAT[Orn]ATERLA[Aad]FLQRGTF[Sar]A[NMeI]LSSTEVGSNT[Hyp]-NH2; lactam 2-7) | 1.23 | 0.268 |
| CC[C@H](C)[C@@H](C(=O)N[C@@H](CC(C)C)C(=O)N[C@@H](CO)C(=O)N[C@@H](CO)C(=O)N[C@H](C(=O)N[C@@H](CCC(=O)O)C(=O)N[C@H](C(=O)NCC(=O)N[C@@H](CO)C(=O)N[C@@H](CC(N)=O)C(=O)N[C@H](C(=O)N1C[C@H](O)C[C@H]1C(N)=O)[C@@H](C)O)C(C)C)[C@@H](C)O)N(C)C(=O)[C@H](C)NC(=O)CN(C)C(=O)[C@H](Cc1ccccc1)NC(=O)[C@H](CO)NC(=O)[C@H](CO)NC(=O)[C@H](CCCNC(=N)N)NC(=O)[C@H](CCC(N)=O)NC(=O)[C@H](CC(C)C)NC(=O)[C@H](Cc1ccccc1)NC(=O)[C@H](Cc1c[nH]cn1)NC(=O)[C@H](C)NC(=O)[C@H](CC(C)C)NC(=O)[C@H](CCCNC(=N)N)NC(=O)[C@H](CCC(=O)O)NC(=O)[C@@H](NC(=O)[C@H](C)NC(=O)[C@@H]1CCCCNC(=O)C[C@H](NC(=O)[C@H](CCCNC(=N)N)NC(=O)CC[C@H](NC(=O)CCCCCCCCCCCCCCCCCCC(=O)O)C(=O)O)C(=O)NCC(=O)N[C@@H]([C@@H](C)O)C(=O)N[C@@H](CC(C)C)C(=O)N[C@@H]([C@@H](C)O)C(=O)N1)[C@@H](C)O [Compound 13, [19CD]-isoGlu-RD()GTLTK()ATERLAHFLQRSSF-Gly(Me)-A-Ile(Me)-LSSTEVGSNT-Hyp-NH2] ({C20 diacid-γGlu}-RDGTLTKATERLAHFLQRSSF[Sar]A[NMeI]LSSTEVGSNT[Hyp]-NH2; lactam 2-7) | 1.41 | 0.456 |
| CC[C@H](C)[C@@H](C(=O)N[C@@H](CC(C)C)C(=O)N[C@@H](CO)C(=O)N[C@@H](CO)C(=O)N[C@H](C(=O)N[C@@H](CCC(=O)O)C(=O)N[C@H](C(=O)NCC(=O)N[C@@H](CO)C(=O)N[C@@H](CC(N)=O)C(=O)N[C@H](C(=O)N1C[C@H](O)C[C@H]1C(N)=O)[C@@H](C)O)C(C)C)[C@@H](C)O)N(C)C(=O)[C@H](C)NC(=O)CN(C)C(=O)[C@H](Cc1ccccc1)NC(=O)[C@H](CO)NC(=O)[C@H](CO)NC(=O)[C@H](CCCNC(=N)N)NC(=O)[C@H](CCC(N)=O)NC(=O)[C@H](CC(C)C)NC(=O)[C@H](Cc1ccccc1)NC(=O)[C@H](CCCC(=O)O)NC(=O)[C@H](C)NC(=O)[C@H](CC(C)C)NC(=O)[C@H](CCCNC(=N)N)NC(=O)[C@H](CCC(=O)O)NC(=O)[C@@H](NC(=O)[C@H](C)NC(=O)[C@@H]1CCCCNC(=O)C[C@H](NC(=O)[C@H](CCCNC(=N)N)NC(=O)CC[C@H](NC(=O)CCCCCCCCCCCCCCCCCCC(=O)O)C(=O)O)C(=O)N2CCC[C@H]2C(=O)N[C@@H]([C@@H](C)O)C(=O)N[C@@H](C)C(=O)N[C@@H]([C@@H](C)O)C(=O)N1)[C@@H](C)O [Compound 29, [19CD]-isoGlu-RD()PTATK()ATERLA-Aad-FLQRSSF-Gly(Me)-A-Ile(Me)-LSSTEVGSNT-Hyp-NH2] ({C20 diacid-γGlu}-RDPTATKATERLA[Aad]FLQRSSF[Sar]A[NMeI]LSSTEVGSNT[Hyp]-NH2; lactam 2-7) | 1.07 | 0.312 |
| CC[C@H](C)[C@@H](C(=O)N[C@@H](CC(C)C)C(=O)N[C@@H](CO)C(=O)N[C@@H](CO)C(=O)N[C@H](C(=O)N[C@@H](CCC(=O)O)C(=O)N[C@H](C(=O)NCC(=O)N[C@@H](CO)C(=O)N[C@@H](CC(N)=O)C(=O)N[C@H](C(=O)N1C[C@H](O)C[C@H]1C(N)=O)[C@@H](C)O)C(C)C)[C@@H](C)O)N(C)C(=O)[C@H](C)NC(=O)CN(C)C(=O)[C@H](Cc1ccccc1)NC(=O)[C@H](CO)NC(=O)[C@H](CO)NC(=O)[C@H](CCCNC(=N)N)NC(=O)[C@H](CCC(N)=O)NC(=O)[C@H](CC(C)C)NC(=O)[C@H](Cc1ccccc1)NC(=O)[C@H](Cc1c[nH]cn1)NC(=O)[C@H](C)NC(=O)[C@H](CC(C)C)NC(=O)[C@H](CCCNC(=N)N)NC(=O)[C@H](CCC(=O)O)NC(=O)[C@@H](NC(=O)[C@H](C)NC(=O)[C@@H]1CNC(=O)C[C@H](NC(=O)[C@H](CCCNC(=N)N)NC(=O)CC[C@H](NC(=O)CCCCCCCCCCCCCCCCCCC(=O)O)C(=O)O)C(=O)NCC(=O)N[C@@H]([C@@H](C)O)C(=O)N[C@@H](C)C(=O)N[C@@H]([C@@H](C)O)C(=O)N1)[C@@H](C)O [Compound 1, [19CD]-isoGlu-RD()GTAT-Dap()-ATERLAHFLQRSSF-Gly(Me)-A-Ile(Me)-LSSTEVGSNT-Hyp-NH2] ({C20 diacid-γGlu}-RDGTAT[Dap]ATERLAHFLQRSSF[Sar]A[NMeI]LSSTEVGSNT[Hyp]-NH2; lactam 2-7) | 13.6 | 9.3 |
